Data: patent US20210348177A1, “GENERATION OF HERITABLY GENE-EDITED PLANTS WITHOUT TISSUE CULTURE” (priority 2018, published 2021)
“Also recorded” adds a separate entry of the source.

How the values were obtained:
plants that express DAAO = details: at the level of 30 mM; cited from earlier work
Arabidopsis thaliana = details: no DAAO; cited from earlier work
transgene-free plants = experiment: Toxicity of GAN: shoot regeneration of decapitated transgene-free (wildtype) plants; assay type: in vivo, tomato; details: for Regeneration of transgene-free plants (control): one month after decapitation
Procedure: (§1) Roughly one week later, seedlings were decapitated at the injection site using a sharp razor blade. Immediately after decapitation, parafilm was stretched over the decapitation site, to prevent the stem from drying out, and aluminum foil was added to cover the parafilm, shading the cut site to promote callus formation. Plants were returned to growth chamber and monitored for axillary shoot formation and callus regeneration. New shoots forming from the cotyledon axillary buds were removed using forceps as soon as they were observed.
(§2) After 1-2 weeks, the cut site of the stem began forming a white callus, and selection gel was applied. Carbomer 940 powder was added to a water solution containing selection agents to make 0.5% w/v carbomer gel. The pH was adjusted with KOH to 7.5 to thicken the gel. The gel containing the selecting agents was added to the decapitated plants by putting a droplet of the gel to the wound site of the shoot using spatula, about 40-50 uL in volume. Parafilm and aluminum foil was placed back on the cut site, and plants were returned to growth chamber. […] Parafilm and foil were removed from decapitation sites, and shoots were allowed to grow.
(§3) Solutions of D-amino acids were made from D-valine powder (MP Biomedicals 0210322625) and D/L-isoleucine powder (MP Biomedicals 0210208225). Zirgan (ganciclovir ophthalmic gel) 0.15%, an antiviral eye gel was used in making GAN gel, as well as in direct application on decapitated plants.
(§4) HSVtk (no Cas9) plants were germinated and grown in soil. They were decapitated about three weeks after they were sown. The selecting agent, GAN (Ganciclovir), was applied to the decapitated plants after the decapitation. We made a series of GAN gels with different GAN concentrations: 0.1 mM, 1 mM, and 4.5 mM. The 0.1 mM and 1 mM GAN gel was made by diluting the Zirgan ganciclovir ophthalmic gel (4.5 mM GAN) into 0.2% carbomer gel. The two gels were mixed in a 4 mL plastic vial by shaking. Around […] GAN gel was applied to each plant each time, and the gel application was renewed every three to five days.
(§5) We tested whether the carbomer gel itself would have an influence on plant regeneration. We included a group of wildtype plants that received no treatment, and a group of wildtype plants that received carbomer gel containing no GAN. All plants in both groups, except one plant in the control set, regenerated new shoots. Therefore, we eliminated the possibility of regeneration interference from the gel.
(§6) One month after the decapitation and application of GAN selection, the regeneration of shoots was evaluated. In the control plants with 0 mM GAN treatment, including HSVtk and wildtype plants, almost all the plants regenerated new shoots. […] Thus, we concluded that GAN was toxic to both HSVtk plants and wildtype plants at a concentration higher than 0.1 mM. However, as the GAN concentration increased, HSVtk plants became more sensitive to it than wildtype plants. At a concentration of 4.5 mM, GAN could prevent regeneration of the HSVtk plants, while still allowing some wildtype plants to regenerate. Therefore we decided to use a 2 mM dose as the effective selecting agent in our future experiments.

HSVtk plants = experiment: Toxicity of GAN: shoot regeneration of decapitated HSVtk plants; assay type: in vivo, tomato; details: for Regeneration of HSVtk plants: one month after decapitation
Procedure: as §1, §2, §3, §4, §5, §6

HSVtk transgene = experiment: CRISPR editing after agro-injection, decapitation and ganciclovir selection: HSVtk; assay type: in vivo, tomato; details: ganciclovir counter-selection of HSVtk+Cas9 lines, regenerated shoots
Procedure: In example two, we decapitated the seedlings at the first internode so that cells that were genome edited could form a callus, regenerate new meristems and stems. The Cas9 expressing mother plants were injected with the viral replicon vector and decapitated at the epicotyl a week later. The decapitation site was covered with parafilm and an aluminum foil cap for 4 weeks. Any axillary buds in the cotyledon node were removed. When a solid callus mass was visible (approx. four weeks after decapitation) at the wound site, the caps were removed and ganciclovir was applied (2 mM concentration of the compound in a carbomer gel). Every meristem that developed into a healthy shoot was detached and propagated to fruiting. Mutation level and type were analyzed by PCR and sequencing of amplicons flanking the target genomic sites. Regenerated stems were evaluated for mutation in the marker and POTATO LEAF (C) sequences and the expected change in leaf shape typical of a C knockout. We evaluated the correlation between the Cas9 modified HSVtk and C.
Agrobacterium glycerol stocks transformed with pTRV or pTAV vectors were streaked onto LB plates containing appropriate antibiotics based on plasmids and agro strains. […] After 24 hours, cultures were measured for OD600 using spectrophotometer. […] The next day, OD600 was measured for each culture. […]

[1] = tested on: transgenic Arabidopsis root explants / leaf explants; details: 0.1 mM GAN; cited from earlier work
transgene-free explants = details: 0.1 mM GAN; cited from earlier work

Compound: CC(C)[C@@H](N)C(=O)O [D-valine]
- effect on plants that express DAAO (plants that express DAAO): deleterious effects
- influence on plant growth (Arabidopsis thaliana): very little influence on plant growth

Compound: Nc1nc(O)c2ncn(COC(CO)CO)c2n1 [GAN, ganciclovir]
- Regeneration of transgene-free plants (plants regenerated out of treated) (transgene-free plants; 0.1 mM GAN): (14 out of 15)
- Regeneration of transgene-free plants (control) (transgene-free plants; 0.1 mM GAN gel): 93%
- Regeneration of transgene-free plants (plants regenerated out of treated) (transgene-free plants; 1 mM GAN): (8 out of 15)
- Regeneration of transgene-free plants (control) (transgene-free plants; 1 mM GAN gel): 53%
- Regeneration of transgene-free plants (plants regenerated out of treated) (transgene-free plants; 4.5 mM GAN): 6 out of 23 and (6 out of 23)
- Regeneration of transgene-free plants (control) (transgene-free plants; 4.5 mM GAN gel): 26%
- Regeneration of HSVtk plants (plants regenerated out of treated) (HSVtk plants; 0.1 mM GAN): (16 out of 18)
- Regeneration of HSVtk plants (HSVtk plants; 0.1 mM GAN gel on decapitated plants): 89%
- Regeneration of HSVtk plants (plants regenerated out of treated) (HSVtk plants; 1 mM GAN): (4 out of 16)
- Regeneration of HSVtk plants (HSVtk plants; 1 mM GAN gel on decapitated plants): 25%
- Regeneration of HSVtk plants (plants regenerated out of treated) (HSVtk plants; 4.5 mM GAN): none of the HSVtk plants regenerated; also recorded: (0 out of 10)
- Regeneration of HSVtk plants (HSVtk plants; 4.5 mM GAN gel on decapitated plants): 0%
- Concentration at which GAN was toxic to both HSVtk plants and wildtype plants (HSVtk plants; decapitated plants, GAN gel, HSVtk and wildtype plants): higher than 0.1 mM
- escapes at current ganciclovir concentrations (HSVtk transgene): ~60%
- shoot regeneration on transgenic root explants or callus formation on leaf explants [1]: significantly reduce
- regeneration of transgene-free explants (transgene-free explants): does not affect

Compound: C[C@@H](N)C(=O)O [D-alanine]
- influence on plant growth (Arabidopsis thaliana): inhibit plant growth even at a low concentration

Compound: CC[C@@H](C)[C@@H](N)C(=O)O [D-isoleucine]
- effect on plants that express DAAO (plants that express DAAO): deleterious effects
- influence on plant growth (Arabidopsis thaliana): very little influence on plant growth

Compound: N[C@H](CO)C(=O)O [D-serine]
- influence on plant growth (Arabidopsis thaliana): inhibit plant growth even at a low concentration
